Measurements reported in patent US10479752B2, “Deuterated tetramethyl dioic acids, compositions comprising them and uses thereof” (SYNDROMEX LTD., priority 2011, dated 2019).

Experiment: Chemical and isotopic stability as solutions in DMSO/phosphate buffered saline over 48 hours
Details: for analyte recovered, yield: summary over the study; for disenrichment of the product (isotopic stability): throughout the time period of the study; for chemical purity (HPLC area percent) with respect to related substances: all samples through the study
[1] = DMSO/PBS solution, 37° C., 24 h
[2] = DMSO/PBS solution, 37° C., 48 h
[3] = Original Sample (before the stability study)
[4] = DMSO/PBS solution, 37° C., 96 h

Experimental: A 1 mg/mL stock solution (˜55 mL) of deuterated compound in DMSO was prepared. A measured volume of stock (7.5 mL) was dispensed in to each of seven vials. To each vial was added a measured volume of PBS (aq) (3.0 mL), and each vial was agitated to mix. The vials were then placed in a thermostatically-controlled oven set to 37° C. At each time-point (0 h, 2 h, 4 h, 24 h, 48 h) a vial was drawn from the oven. To the vial was added MTBE (9.0 mL), and the mixture was stirred vigorously for 5 min. The layers were separated, and the MTBE layer was agitated with DI water (3.75 mL) for 1 min. The layers were separated. The MTBE layer was dried with MgSO4 for >1 h, and then filtered through a PTFE syringe filter into a tared vial. The solution was concentrated in vacuo to a solid residue, and the mass of the residue was calculated and recorded. To the residue a measured volume of MeOH was added to make (theoretically) a 2.5 mg/mL solution. In this case, 3.00 mL MeOH was added to each vial which theoretically contained 7.5 mg of compound. The content of each solution was measured by quantitative HPLC analysis (by comparison to a standard of known concentration). The MeOH solutions were then recovered, concentrated in vacuo to a solid, and then analyzed by GCMS to determine isotopic enrichment as the methyl ester derivatives.

Compound | GC/MS IE (isotopic enrichment) (DMSO/PBS solution, 37° C., 0 h) | HPLC Area Percentage (DMSO/PBS solution, 37° C., 0 h) | HPLC Assay (DMSO/PBS solution, 37° C., 0 h) | GC/MS IE (isotopic enrichment) (DMSO/PBS solution, 37° C., 2 h) | HPLC Area Percentage (DMSO/PBS solution, 37° C., 2 h) | HPLC Assay (DMSO/PBS solution, 37° C., 2 h) | GC/MS IE (isotopic enrichment) (DMSO/PBS solution, 37° C., 4 h) | HPLC Area Percentage (DMSO/PBS solution, 37° C., 4 h) | HPLC Assay (DMSO/PBS solution, 37° C., 4 h) | GC/MS IE (isotopic enrichment) [1] | HPLC Area Percentage [1] | HPLC Assay [1] | GC/MS IE (isotopic enrichment) [2] | HPLC Area Percentage [2] | HPLC Assay [2] | analyte recovered, yield (DMSO/PBS solution, 37° C.) | disenrichment of the product (isotopic stability) (DMSO/PBS solution, 37° C.) | HPLC Area Percentage [3] | chemical purity (HPLC area percent) with respect to related substances (DMSO/PBS solution, 37° C.) | further results
[2H]C([2H])([2H])C(CCCCCCCCCCCCC(CC(=O)O)(C([2H])([2H])[2H])C([2H])([2H])[2H])(CC(=O)O)C([2H])([2H])[2H] [Compound 6, 3,3,16,16-[D12]Tetramethyl-1,18-octadecanedioic acid] | 99.2% | 98.4% | 39.0% | 99.0% | 98.6% | 33.1% | 99.1% | 97.9% | 35.6% | 99.0% | 98.5% | 39.8% | 99.1% | 98.7% | 59.6% | about 95% | No disenrichment | 100.0% | – | –
[2H]C([2H])([2H])C(CCCCCCCCCCC(CC(=O)O)(C([2H])([2H])[2H])C([2H])([2H])[2H])(CC(=O)O)C([2H])([2H])[2H] [Compound 3, 3,3,14,14-[D12]Tetramethyl-1,16-hexadecanedoic acid] | 99.9% | 98.0% | 33.3% | 99.9% | 98.8% | 38.4% | 99.9% | 98.4% | 32.4% | 99.9% | 98.6% | 46.0% | 99.9% | 98.5% | 50.2% | about 95% | No disenrichment | 100.0% | – | –
[2H]C([2H])(C(=O)O)C(C)(C)CCCCCCCCCCC(C)(C)C([2H])([2H])C(=O)O [Compound 2, 3,3,14,14-Tetramethyl-1,16-[2-D2,15-D2]hexadecanediol acid] | 97.9% | 94.9% | 67.4% | 98.0% | 95.5% | 65.1% | 98.0% | 95.4% | 62.4% | 98.0% | 95.2% | 86.0% | 98.0% | 96.0% | – | approximately 90% | – | 97.0% | around 96% | GC/MS IE (isotopic enrichment) [4]: 98.0%; HPLC Area Percentage [4]: 96.1%; HPLC Assay [4]: 76.8%
[2H]C([2H])([2H])C(CCCCCCCCCCCCCCC(C(=O)O)(C([2H])([2H])[2H])C([2H])([2H])[2H])(C(=O)O)C([2H])([2H])[2H] [Compound 8, 2,2,17,17-Tetramethyl(D12)-octadecanedioic acid] | 99.9% | 95.1% | 60.0% | 99.9% | 94.3% | 68.7% | 99.9% | 94.1% | 56.9% | 99.9% | 96.0% | 66.8% | 99.9% | 97.2% | 47.7% | about 85% | No disenrichment | 100.0% | around 95% | GC/MS IE (isotopic enrichment) [3]: 99.9%
